Reference: US11324720B2, “Antiproliferative DNA polymerase inhibitor” (NEW YORK MEDICAL COLLEGE, priority 2018, dated 2022)

Target: T1, Pol δ (Homo sapiens, UniProt P28340)
T1 construct: made in house; host or cells: insect cells (Pol δ); E. coli (PCNA)
Test: primer extension assay (25 mer primer/40 mer template)
Format: biochemical
Conditions: 20 μM inhibitor
Description: Next, we investigated the inhibitory properties of zelpolib in a primer extension assay^17,18 with a template that consists of all four deoxynucleotide that is more reflective of cellular DNA replication processes than the pold(A) template. The substrate consisted of a 25 mer primer hybridized to a 40 mer template. In the presence of PCNA and dNTPs, the primers were extended upon addition of Pol δ and a full extension would generate a 40 mer copy of the template. The primers were labeled at the 5′-end with ^32P, and the products were separated on a sequencing gel for visualization and quantification. […] The idea originated from the fact that most kinase inhibitors compete for binding with ATP. It is conceivable that they might compete with dATP for binding to polymerases. We randomly selected 10 small-molecule-cancer drugs with nine being kinase inhibitors^19 and one parp inhibitor (olaparib)^20. […] In the presence of any other inhibitors, at least 30% of the primers were extended.
Recombinant Pol […] were expressed in insect cells and purified as reported previously^18. […]
Briefly, the standard reaction mixture contained 5 μM dNTP, 5 mM MgCl2, 50 mM Tris-HCl (pH 7.5), 2 mM dithiothreitol, […] BSA, 50 mM NaCl, 20 nM primer/template, 50 nM PCNA, 10 nM Pol δ and variable concentrations of inhibitors. […] Products was visualized on phosphorimager and quantitated using Image-J software. […]

T1 sequence (P28340 whole entry): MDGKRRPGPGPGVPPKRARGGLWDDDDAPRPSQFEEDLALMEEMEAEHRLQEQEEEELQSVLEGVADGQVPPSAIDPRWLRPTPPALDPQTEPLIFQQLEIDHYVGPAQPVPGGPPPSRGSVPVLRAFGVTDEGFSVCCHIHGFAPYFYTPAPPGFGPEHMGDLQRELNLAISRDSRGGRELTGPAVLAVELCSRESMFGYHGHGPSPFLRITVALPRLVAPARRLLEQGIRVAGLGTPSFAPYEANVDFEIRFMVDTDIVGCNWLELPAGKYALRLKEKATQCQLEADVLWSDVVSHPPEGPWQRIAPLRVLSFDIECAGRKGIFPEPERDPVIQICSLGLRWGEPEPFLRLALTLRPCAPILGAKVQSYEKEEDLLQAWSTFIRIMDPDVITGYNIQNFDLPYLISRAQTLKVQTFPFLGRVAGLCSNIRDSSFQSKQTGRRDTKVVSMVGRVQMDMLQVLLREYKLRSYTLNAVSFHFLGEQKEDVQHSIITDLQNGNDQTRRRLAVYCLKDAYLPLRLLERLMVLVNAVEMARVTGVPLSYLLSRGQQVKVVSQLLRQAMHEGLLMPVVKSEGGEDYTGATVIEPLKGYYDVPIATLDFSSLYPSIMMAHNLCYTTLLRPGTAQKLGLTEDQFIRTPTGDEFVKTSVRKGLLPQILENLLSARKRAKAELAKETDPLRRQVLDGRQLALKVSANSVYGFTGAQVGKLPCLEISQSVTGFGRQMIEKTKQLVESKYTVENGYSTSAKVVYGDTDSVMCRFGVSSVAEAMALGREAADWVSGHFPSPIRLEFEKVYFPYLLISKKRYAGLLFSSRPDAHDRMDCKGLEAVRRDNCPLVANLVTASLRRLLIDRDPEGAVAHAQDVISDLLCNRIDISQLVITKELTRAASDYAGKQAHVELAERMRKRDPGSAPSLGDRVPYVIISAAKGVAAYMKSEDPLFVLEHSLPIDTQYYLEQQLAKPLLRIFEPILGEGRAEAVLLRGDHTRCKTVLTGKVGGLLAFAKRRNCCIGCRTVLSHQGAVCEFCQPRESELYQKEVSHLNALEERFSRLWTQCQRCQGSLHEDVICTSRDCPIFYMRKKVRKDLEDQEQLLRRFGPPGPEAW
T1 sequence (P49005 whole entry partner): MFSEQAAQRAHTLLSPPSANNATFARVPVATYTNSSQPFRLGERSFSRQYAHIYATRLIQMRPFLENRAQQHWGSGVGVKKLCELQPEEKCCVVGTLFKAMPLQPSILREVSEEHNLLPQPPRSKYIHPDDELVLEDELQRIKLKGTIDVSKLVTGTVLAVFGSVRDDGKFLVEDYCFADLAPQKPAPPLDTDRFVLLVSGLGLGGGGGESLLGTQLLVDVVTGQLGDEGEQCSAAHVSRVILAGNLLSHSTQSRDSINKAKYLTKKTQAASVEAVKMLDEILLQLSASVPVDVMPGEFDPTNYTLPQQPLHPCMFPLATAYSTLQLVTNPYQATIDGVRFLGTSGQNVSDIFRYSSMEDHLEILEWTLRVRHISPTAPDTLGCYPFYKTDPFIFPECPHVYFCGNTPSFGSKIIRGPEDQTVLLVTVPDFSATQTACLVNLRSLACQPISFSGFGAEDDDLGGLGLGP
T1 sequence (Q15054 whole entry partner): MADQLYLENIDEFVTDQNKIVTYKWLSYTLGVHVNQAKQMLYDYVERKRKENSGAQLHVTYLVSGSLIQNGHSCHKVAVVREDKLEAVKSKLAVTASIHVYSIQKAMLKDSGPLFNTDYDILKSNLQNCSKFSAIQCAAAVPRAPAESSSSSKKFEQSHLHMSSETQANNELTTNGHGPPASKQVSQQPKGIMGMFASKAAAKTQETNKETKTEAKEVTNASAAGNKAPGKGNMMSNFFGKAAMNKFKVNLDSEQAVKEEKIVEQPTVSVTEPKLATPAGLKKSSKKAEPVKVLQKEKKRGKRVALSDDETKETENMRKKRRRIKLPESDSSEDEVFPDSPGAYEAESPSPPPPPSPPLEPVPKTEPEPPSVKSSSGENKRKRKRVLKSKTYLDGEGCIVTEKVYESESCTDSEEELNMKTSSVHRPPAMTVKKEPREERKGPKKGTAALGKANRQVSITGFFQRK
T1 sequence (P12004 whole entry partner): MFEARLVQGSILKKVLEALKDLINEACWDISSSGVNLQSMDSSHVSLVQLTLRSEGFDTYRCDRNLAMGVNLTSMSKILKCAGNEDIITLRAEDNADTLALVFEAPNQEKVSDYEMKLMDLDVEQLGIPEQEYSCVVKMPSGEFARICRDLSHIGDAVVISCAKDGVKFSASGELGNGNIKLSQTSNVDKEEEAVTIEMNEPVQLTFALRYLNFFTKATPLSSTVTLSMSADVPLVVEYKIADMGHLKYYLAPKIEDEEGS

## COC(=O)c1cc(-c2ccccc2)sc1NC(=S)NNC(=O)CCc1ccc(O)c(O)c1 [zelpolib]
  full-length product (40 mer) formed: barely detectible
  primer unextended: 94%
